US20260365628A1, “SUBSTITUTED 3,4-DIHYDROQUINOLINONE INHIBITORS OF TSHR” (Septerna, Inc., priority 2022, published 2026)

These compounds were tested against T1, hTSHR (Homo sapiens, UniProt P16473) (assay: hTSHR TR-FRET cAMP Assay (inhibition of M22-stimulated cAMP production)). Conditions: not given.
T1 construct: expressed in transfected cells
Format: cell-based
Procedure, shortened: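 Readout was a cAMP HTRF ratio of 655/620 nm after lysis, scaled between the EC80 M22 signal (0% inhibition) and no-agonist vehicle (100%). Frozen induced Expi293F-hTSHR cells saw test compounds (0.5% DMSO) for 15 min at 37 °C before 30 min of M22 stimulation at EC80.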

T1 sequence (P16473 21-764): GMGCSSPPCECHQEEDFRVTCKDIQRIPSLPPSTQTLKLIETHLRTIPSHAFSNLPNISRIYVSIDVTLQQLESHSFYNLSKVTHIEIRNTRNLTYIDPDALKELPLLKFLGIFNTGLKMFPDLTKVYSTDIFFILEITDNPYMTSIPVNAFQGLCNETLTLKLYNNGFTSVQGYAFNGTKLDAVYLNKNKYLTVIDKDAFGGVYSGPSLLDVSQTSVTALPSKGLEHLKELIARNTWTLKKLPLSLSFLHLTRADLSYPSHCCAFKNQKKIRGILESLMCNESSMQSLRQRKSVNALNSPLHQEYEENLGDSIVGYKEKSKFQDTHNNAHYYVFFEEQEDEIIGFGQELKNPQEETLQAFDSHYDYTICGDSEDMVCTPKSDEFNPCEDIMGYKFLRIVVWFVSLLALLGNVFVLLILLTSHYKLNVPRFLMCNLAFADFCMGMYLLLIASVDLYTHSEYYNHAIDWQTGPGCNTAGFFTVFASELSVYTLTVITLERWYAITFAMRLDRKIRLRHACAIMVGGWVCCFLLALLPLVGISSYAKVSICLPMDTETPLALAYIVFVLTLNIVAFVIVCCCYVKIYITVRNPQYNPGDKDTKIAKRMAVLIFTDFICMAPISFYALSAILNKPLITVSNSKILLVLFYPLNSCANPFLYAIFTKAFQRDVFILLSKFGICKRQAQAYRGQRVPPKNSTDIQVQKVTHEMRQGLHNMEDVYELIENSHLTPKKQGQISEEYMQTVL

CC(C)(C)NC(=O)Oc1ccc2c(c1)CCC(=O)N2Cc1ccccc1 [Example 63] gave an IC50 greater than 1000 nM.

Same assay, conditions: Expi293F Inducible cells stably expressing hTSHR; cAMP HTRF; stimulated with EC80 of anti-TSHR antibody M22; 15 min compound preincubation, 30 min at 37° C.; read-out: Activity (IC50 bins)

O=C(Nc1ccc2c(c1)ncc(=O)n2Cc1ccccc1)C1CCCC1 [Example 197, N-(1-benzyl-2-oxo-1,2 dihydroquinoxalin-6-yl)cyclopentanecar-boxamide] and O=C(Nc1ccc2c(c1)ncc(=O)n2Cc1ccccc1)NC1CCCC1 [Example 196, 1-(1-benzyl-2-oxo-1,2-dihydroquinoxalin-6-yl)-3-cyclopentylurea] cannot be ordered by IC50: greater than 1000 nM for the first, greater than 1000 nM for the second.

CC(C)(C)NC(=O)Nc1ccc2c(c1)OCC(=O)N2Cc1ccccc1 [Example 7, 1-(4-benzyl-3-oxo-3,4-dihydro-2H-benzo[b][1,4]oxazin-7-yl)-3-(tert-butyl)urea] and C[C@@H]1Oc2cc(NC(=O)NC(C)(C)C)ccc2N(Cc2ccccc2)C1=O [Example 42, (S)-1-(4-benzyl-2-methyl-3-oxo-3,4-dihydro-2H-benzo[b][1,4]oxazin-7-yl)-3-(tert-butyl)urea] cannot be ordered by IC50: less than 100 nM for the first, less than 100 nM for the second.

Compared with CC[C@H]1Oc2cc(NC(=O)NC(C)(C)C)ccc2N(Cc2ccccc2)C1=O [Example 277, (R)-1-(4-benzyl-2-ethyl-3-oxo-3,4-dihydro-2H-benzo[b][1,4]oxazin-7-yl)-3-(tert-butyl)urea], CC1Cc2cc(NC(=O)NC(C)(C)C)ccc2N(Cc2ccccc2)C1=O (stereo not drawn) [Example 5, 1-(1-benzyl-3-methyl-2-oxo-1,2,3,4-tetrahydroquinolin-6-yl)-3-(tert-butyl)urea] is lower in IC50: greater than 1000 nM for the first, less than 100 nM for the second.

First: C[C@H]1Oc2cc(NC(=O)NC3(C(F)(F)F)CCCC3)ccc2N([C@@H](C)c2ccccc2)C1=O [Example 257, 1-((R)-2-methyl-3-oxo-4-((S)-1-phen-ylethyl)-3,4-dihydro-2H-benzo[b][1,4]oxazin-7-yl)-3-(1-(trifluoromethyl)-cyclopentyl)urea]
Second: C[C@@H]1Oc2cc(NC(=O)NC(C)(C)C)ccc2N([C@@H](C)c2ccccc2)C1=O [Example 268, 1-(tert-butyl)-3-((S)-2-methyl-3-oxo-4-((S)-1-phenylethyl)-3,4-dihydro-2H-benzo[b][1,4]oxazin-7-yl)urea]
The IC50 of the first is lower: less than 100 nM for the first, 100 to 1000 nM for the second.

Compared with CC(C)(C)NC(=O)Nc1ccc2c(c1)CC(CO)C(=O)N2Cc1ccccc1 (stereo not drawn) [Example 51, 1-(1-benzyl-3-(hydroxymethyl)-2-oxo-1,2,3,4-tetrahydroquinolin-6-yl)-3-(tert-butyl)urea], CC(C)(CCO)NC(=O)Nc1ccc2c(c1)CCC(=O)N2Cc1ccccc1 [Example 16, 1-(1-benzyl-2-oxo-1,2,3,4-tetrahydroquinolin-6-yl)-3-(4-hydroxy-2-methylbutan-2-yl)urea] is lower in IC50: greater than 1000 nM for the first, 100 to 1000 nM for the second. The second is the more potent here.

C[C@H]1Oc2nc(NC(=O)NC(C)(C)C)c(Cl)cc2N(Cc2ccccc2)C1=O [Example 355, 1-[(3R)-1-benzyl-7-chloro-3-methyl-2-oxo-3H-pyrido[2,3-b][1,4]oxazin-6-yl]-3-tert-butylurea] and C[C@H]1Oc2nc(NC(=O)NC(C)(C)C)ccc2N(Cc2ccccc2)C1=O [Example 280, (R)-1-(1-benzyl-3-methyl-2-oxo-2,3-dihydro-1H-pyrido[2,3-b][1,4]oxazin-6-yl)-3-(tert-butyl)urea] fall in the same range of IC50: 100 to 1000 nM for the first, 100 to 1000 nM for the second.

First: C[C@@H](c1cccc(OC(F)(F)F)c1)n1c(=O)cnc2c(F)c(NC(=O)NC(C)(C)C)ccc21 [Example 353, 3-tert-butyl-1-{5-fluoro-2-oxo-1-[(1S)-1-[3-(trifluoromethoxy)phenyl]ethyl]quinoxalin-6-yl}urea]
Second: C[C@@H](c1cccc(OC(F)(F)F)c1)n1c(=O)cnc2c(CO)c(NC(=O)NC(C)(C)C)ccc21 [Example 351, (S)-1-(tert-butyl)-3-(5-(hydroxymethyl)-2-oxo-1-(1-(3-(trifluoromethoxy)phenyl)ethyl)-1,2-dihydroquinoxalin-6-yl)urea]
The IC50 of the first is lower: 100 to 1000 nM for the first, greater than 1000 nM for the second.

First: CC(C)(C)NC(=O)Nc1cc2c(cc1F)N(Cc1ccccc1)C(=O)CC2 [Example 65, 1-(1-benzyl-7-fluoro-2-oxo-1,2,3,4-tetrahydroquinolin-6-yl)-3-(tert-butyl)urea]
Second: CC(C)(C)NC(=O)Nc1ccc2c(c1)CCC(=O)N2Cc1cccc(F)c1 [Example 26, 1-(tert-butyl)-3-(1-(3-fluorobenzyl)-2-oxo-1,2,3,4-tetrahydroquinolin-6-yl)urea]
The IC50 of the first is higher: 100 to 1000 nM for the first, less than 100 nM for the second. The second is the more potent here.

C[C@H]1Oc2cc(NC(=O)NC(C)(C)C)ccc2N(Cc2cccc(OC(F)F)c2)C1=O [Example 160, (R)-1-(tert-butyl)-3-(4-(3-(difluoro-methoxy)benzyl)-2-methyl-3-oxo-3,4-dihydro-2H-benzo [b][1,4]oxazin-7-yl)urea] and CC1Oc2cc(NC(=O)NC(C)(C)C)ccc2N(Cc2cccc(Cl)c2)C1=O (stereo in doubt) [Example 44, (S)-1-(tert-butyl)-3-(4-(3-chlorobenzyl)-2-methyl-3-oxo-3,4-dihydro-2H-benzo[b][1,4]oxazin-7-yl)urea] cannot be ordered by IC50: less than 100 nM for the first, less than 100 nM for the second.

Going from C[C@@H]1Oc2cc(NC(=O)NC(C)(C)C)ccc2N(Cc2cc(Cl)ccc2C#N)C1=O [Example 86, (S)-1-(tert-butyl)-3-(4-(5-chloro-2-cyanobenzyl)-2-methyl-3-oxo-3,4-dihydro-2H-benzo[b][1,4]oxazin-7-yl)urea] to C[C@H]1Oc2cc(NC(=O)NC(C)(C)C)ccc2N([C@@H](C)c2cc(F)ccc2F)C1=O [Example 188, 1-(tert-butyl)-3-((R)-4-((S)-1-(2,5-difluorophenyl)ethyl)-2-methyl-3-oxo-3,4-dihydro-2H-benzo[b][1,4]oxazin-7-yl)urea], the IC50 falls from greater than 1000 nM to less than 100 nM.

C[C@@H](c1cccc(CCCC(C)(C)O)c1)n1c(=O)cnc2cc(NC(=O)NC(C)(C)C)ccc21 [Example 118, (S)-1-(tert-butyl)-3-(1-(1-(3-(4-hydroxy-4-methylpentyl)phenyl)ethyl)-2-oxo-1,2-dihydroquinoxalin-6-yl)urea] and C[C@@H](c1cccc(CCOCC(C)(C)O)c1)n1c(=O)cnc2cc(NC(=O)NC(C)(C)C)ccc21 [Example 121, (S)-1-(tert-butyl)-3-(1-(1-(3-(2-(2-hydroxy-2-methylpropoxy)ethyl)phenyl)ethyl)-2-oxo-1,2-dihydroquinoxalin-6-yl)urea] cannot be ordered by IC50: greater than 1000 nM for the first, greater than 1000 nM for the second.

First: CC(C)(C)OC(=O)Nc1ccc2c(c1)CCC(=O)N2Cc1ccccc1 [Example 9, tert-butyl (1-benzyl-2-oxo-1,2,3,4-tetrahydroquinolin-6-yl)carbamate]
Second: CC(C)(C)NC(=O)Nc1ccc2c(n1)CCC(=O)N2Cc1cccc(Cl)c1 [Example 281, 1-(tert-butyl)-3-(5-(3-chlorobenzyl)-6-oxo-5,6,7,8-tetrahydro-1,5-naphthyridin-2-yl)urea]
The IC50 of the first is lower: less than 100 nM for the first, 100 to 1000 nM for the second. The first is the more potent here.

First: C[C@H]1Oc2cc(NC(=O)NC(C)(C)C)c(F)cc2N(Cc2cccc(C(F)F)c2)C1=O [Example 327, (R)-1-(tert-butyl)-3-(4-(3-(difluoromethyl)benzyl)-6-fluoro-2-methyl-3-oxo-3,4-dihydro-2H-benzo[b][1,4]oxazin-7-yl)urea]
Second: COc1cccc([C@H](C)N2C(=O)[C@@H](C)Oc3cc(NC(=O)NC(C)(C)C)ccc32)c1 [Example 187, 1-(tert-butyl)-3-((R)-4-((S)-1-(3-methoxyphenyl)ethyl)-2-methyl-3-oxo-3,4-dihydro-2H-benzo[b][1,4]oxazin-7-yl)urea]
The IC50 of the first is lower: less than 100 nM for the first, 100 to 1000 nM for the second. The first is the more potent here.

First: CC(C)(O)CNC(=O)Nc1ccc2c(c1)ncc(=O)n2Cc1cccc(OC(F)(F)F)c1 [Example 239, 1-(2-hydroxy-2-methylpropyl)-3-(2-oxo-1-(3-(trifluoromethoxy)benzyl)-1,2-dihydroquinoxalin-6-yl)urea]
Second: C[C@@H](c1cccc(OC(F)(F)F)c1)n1c(=O)cnc2cc(NC(=O)NC3CC(F)(F)C3)ccc21 [Example 204, (S)-1-(3,3-difluorocyclobutyl)-3-(2-oxo-1-(1-(3-(trifluoromethoxy)phenyl)ethyl)-1,2-dihydroquinoxalin-6-yl)urea]
The IC50 of the first is higher: greater than 1000 nM for the first, 100 to 1000 nM for the second.

Cc1cc2c(cc1NC(=O)NC(C)(C)C)ncc(=O)n2[C@@H](C)c1ccccc1 [Example 347, 3-tert-butyl-1-{7-methyl-2-oxo-1-[(1S)-1-phenylethyl]quinoxalin-6-yl}urea] and C[C@@H](c1ccccc1)n1c(=O)cnc2cc(NC(=O)NC(C)(C)C)ccc21 [Example 98, (S)-1-(tert-butyl)-3-(2-oxo-1-(1-phenylethyl)-1,2-dihydroquinoxalin-6-yl)urea] fall in the same range of IC50: 100 to 1000 nM for the first, 100 to 1000 nM for the second.

First: C[C@@H](c1cc(Cl)ccc1Cl)n1c(=O)cnc2cc(NC(=O)NC(C)(C)C)c(Cl)cc21 [Example 365, (S)-1-(tert-butyl)-3-(7-chloro-1-(1-(2,5-dichlorophenyl)ethyl)-2-oxo-1,2-dihydroquinoxalin-6-yl)urea]
Second: C[C@@H](c1cccc(C(O)C(F)(F)F)n1)n1c(=O)cnc2cc(NC(=O)NC(C)(C)C)ccc21 (stereo in doubt) [Example 154, 1-(tert-butyl)-3-(2-oxo-1-((S)-1-(6-((R)-2,2,2-trifluoro-1-hydroxyethyl)pyridin-2-yl)ethyl)-1,2-dihydroquinoxalin-6-yl)urea]
The IC50 of the first is lower: less than 100 nM for the first, 100 to 1000 nM for the second. The first is the more potent here.

First: C[C@@H](c1cccc(OC(F)(F)F)c1)n1c(=O)cnc2cc(NC(=O)NC3(C(F)(F)F)COC3)ccc21 [Example 222]
Second: C[C@@H](c1cccc(C(F)(F)F)c1)N1C(=O)CCc2cc(NC(=O)NC(C)(C)C)ccc21 [Example 60, (S)-3-tert-butyl-1-(2-oxo-1-{1-[3-(trifluoromethyl)phenyl]ethyl}-3,4-dihydroquinolin-6-yl)urea]
The IC50 of the first is higher: 100 to 1000 nM for the first, less than 100 nM for the second.

For C[C@H](c1ccccc1)N1C(=O)N(C)Cc2cc(NC(=O)NC(C)(C)C)ccc21 [Example 45A, 3-tert-butyl-1-{3-methyl-2-oxo-1-[(1R)-1-phenylethyl]-4H-quinazolin-6-yl}urea], the IC50 was greater than 1000 nM.
